Tests used:
[1] = tested on: C. glabrata mating GPCR
[2] = tested on: C. albicans mating receptor (Ca.Ste2) biosensor; experiment: Paper-based dipstick assay, lycopene readout, C. albicans biosensor; assay type: cell-based, Candida albicans; conditions: 1 μM peptide
[3] = target: S. cerevisiae native Ste2 receptor (Saccharomyces cerevisiae, UniProt D6VTK4); experiment: Fungal GPCR activation in S. cerevisiae sensor strain, fluorescent reporter; assay type: cell-based; conditions: non-cognate peptide
S. cerevisiae native Ste2 receptor, sequence (D6VTK4 whole entry): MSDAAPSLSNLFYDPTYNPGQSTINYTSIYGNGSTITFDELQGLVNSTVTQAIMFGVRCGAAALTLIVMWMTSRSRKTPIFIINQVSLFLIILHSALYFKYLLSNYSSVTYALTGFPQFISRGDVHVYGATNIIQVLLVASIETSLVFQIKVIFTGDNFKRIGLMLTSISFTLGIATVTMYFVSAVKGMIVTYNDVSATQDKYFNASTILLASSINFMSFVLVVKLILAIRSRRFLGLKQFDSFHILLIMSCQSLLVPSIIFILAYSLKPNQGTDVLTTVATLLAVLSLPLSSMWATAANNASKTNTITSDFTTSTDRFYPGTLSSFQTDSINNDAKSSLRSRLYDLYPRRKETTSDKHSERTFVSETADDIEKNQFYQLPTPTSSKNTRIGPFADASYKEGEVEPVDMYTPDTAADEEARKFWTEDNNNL

[4] = tested on: M. oryzea mating GPCR; assay type: cell-based, Magnaporthe oryzea
[5] = tested on: B. cinerea mating GPCR; assay type: cell-based, Botrytis cinerea; conditions: cognate synthetic peptide pheromone, fluorescent readout
[6] = tested on: P. brasiliensis mating receptor (Pb.Ste2) biosensor; assay type: cell-based, Paracoccidioides brasiliensis
[7] = tested on: F. graminearum mating GPCR; assay type: cell-based, Fusarium graminearum
[8] = target: endogenous GPCR Ste2 (Saccharomyces cerevisiae, UniProt D6VTK4); assay type: cell-based, S. cerevisiae; conditions: v1.0 lycopene reporter strain
endogenous GPCR Ste2, sequence (D6VTK4 whole entry): as above

[9] = tested on: C. albicans mating GPCR (Ca.Ste2); assay type: cell-based, Candida albicans; conditions: non-cognate peptide
[10] = tested on: L. elongisporous mating GPCR; assay type: cell-based; conditions: cognate synthetic peptide pheromone, fluorescent readout

GFRLTNFGYFEPG [GFRLTNFGYFEPG (SEQ ID NO: 5)]
response of C. glabrata receptor to the other species pheromone ([1]; non-cognate peptide): did not respond
time to maximal response in dipstick assay [2]: ≤ 12 h
response of S. cerevisiae native Ste2 receptor to non-cognate pheromone [3]: not

QWCPRRGQPCW [QWCPRRGQPCW (SEQ ID NO: 17)]
EC50 [4]: 5000 nM

WCGRPGQPC [WCGRPGQPC (SEQ ID NO: 20)]
EC50 [5]: < 1 nM

WCTRPGQGC [WCTRPGQGC (SEQ ID NO: 11)]
time to maximal response in dipstick assay [6]: ≤ 12 h

WCWWKGQPCW [WCWWKGQPCW (SEQ ID NO: 14)]
EC50 [7]: 230 nM

WHWLQLKPGQPMY [WHWLQLKPGQPMY (SEQ ID NO: 24)]
time until reporter strain became visibly orange after exposure [8]: 36 h

WHWVRLRKGQGLF [WHWVRLRKGQGLF (SEQ ID NO: 8)]
response of C. albicans receptor to the other species pheromone [9]: did not respond
EC50 ([1]; cognate synthetic peptide pheromone, biosensor settings): 3600 nM
response of S. cerevisiae native Ste2 receptor to non-cognate pheromone [3]: responded

WMWTRYGRFSPV [WMWTRYGRFSPV (SEQ ID NO: 34)]
EC50 [10]: 51 nM
